Data published in patent US9951064B2, “Azaindazole compounds as inhibitors of T790M containing EGFR mutants” (Genentech, Inc., priority 2013, dated 2018).

Experiments:
EGFR del746-750 T790M = target: T1, EGFR del746-750 T790M (Homo sapiens, UniProt P00533, DEL746-750/T790M); assay: EGFR del746-750 T790M biochemical assay (Caliper mobility shift); conditions: 5 μM ATP; apparent Ki (Morrison fit) converted by Cheng-Prusoff, Km of ATP 2.1 μM; read-out: EGFR(T790M/d746-750) Ki
T1 construct: purchased Carna Biosciences 08-528
How it was run: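 Kinase reactions ran 30 min at room temperature (22 °C), then were stopped with 80 mM EDTA. Phosphorylated product and substrate were separated electrophoretically and quantified by Caliper mobility shift.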

[1] = target: T2, phosphor-EGFR in H1975(L585R/T790M) mutant EGFR expressing cells (Homo sapiens, UniProt P00533, L858R/T790M); assay: H1975 pEGFR MSD cellular assay; assay type: cell-based; conditions: NCI-H1975 cells, serum starved, 1 hour compound incubation, pEGFR Tyr1068 MSD; read-out: HI975 pEGFR EC50
T2 construct: host or cells: NCI-H1975
How it was run: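 NCI-H1975 cells, 30,000/well, serum-starved overnight, then treated 1 hour at 37° C with serially diluted compounds in serum-free medium (0.5% DMSO). Lysates captured on anti-phospho-EGFR plates overnight at 4° C, detected with SULFO-TAG anti-total EGFR by electrochemiluminescence. Inhibition vs untreated controls; EC50 from 4-parameter logistic fit.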

[2] = test system: H1975 (EGFR T790M/L858R) cell proliferation; assay: H1975 proliferation assay (Cell Titer-Glo); assay type: cell-based; conditions: Homo sapiens, NCI-H1975, 72 h, NCI-H1975 cells, 72 hour incubation, read-out: H1975 antiproliferative EC50
Experimental: H1975 Proliferation Assays
All cell culture reagents were purchased from Invitrogen/Gibco. Cells are cultured at 37° C. at 5% CO2 and split as recommended by ATCC.

EGFR T790M L858R = target: T3, EGFR T790M L858R (Homo sapiens, UniProt P00533, L858R/T790M); assay: EGFR T790M L858R biochemical assay (Caliper mobility shift); conditions: 5 μM ATP; apparent Ki (Morrison fit) converted by Cheng-Prusoff, Km of ATP 1.3 μM
T3 construct: purchased Life Technologies PV4879
How it was run: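 Reactions run 30 minutes at room temperature (22 °C), stopped with 80 mM EDTA. Phosphorylated product and substrate separated electrophoretically and quantified by Caliper mobility shift.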

T1 sequence (P00533 with tags, fused parts or gaps DEL746-750/T790M limits assumed): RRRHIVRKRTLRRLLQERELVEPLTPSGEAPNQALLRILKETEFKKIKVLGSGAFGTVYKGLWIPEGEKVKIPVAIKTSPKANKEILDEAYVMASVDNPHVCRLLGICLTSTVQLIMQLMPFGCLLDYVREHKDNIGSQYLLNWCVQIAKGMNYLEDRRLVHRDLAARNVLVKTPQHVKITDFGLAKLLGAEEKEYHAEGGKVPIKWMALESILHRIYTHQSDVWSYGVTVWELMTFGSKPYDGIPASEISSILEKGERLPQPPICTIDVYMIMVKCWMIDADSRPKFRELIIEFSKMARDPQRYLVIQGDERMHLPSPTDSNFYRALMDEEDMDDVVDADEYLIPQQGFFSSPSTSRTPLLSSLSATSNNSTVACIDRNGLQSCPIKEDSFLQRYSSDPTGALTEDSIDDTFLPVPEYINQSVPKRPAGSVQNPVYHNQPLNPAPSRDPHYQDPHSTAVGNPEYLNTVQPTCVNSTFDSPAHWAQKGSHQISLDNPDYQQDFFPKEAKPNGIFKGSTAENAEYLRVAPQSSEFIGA
T2 sequence (P00533 25-1210 T790M/L858R): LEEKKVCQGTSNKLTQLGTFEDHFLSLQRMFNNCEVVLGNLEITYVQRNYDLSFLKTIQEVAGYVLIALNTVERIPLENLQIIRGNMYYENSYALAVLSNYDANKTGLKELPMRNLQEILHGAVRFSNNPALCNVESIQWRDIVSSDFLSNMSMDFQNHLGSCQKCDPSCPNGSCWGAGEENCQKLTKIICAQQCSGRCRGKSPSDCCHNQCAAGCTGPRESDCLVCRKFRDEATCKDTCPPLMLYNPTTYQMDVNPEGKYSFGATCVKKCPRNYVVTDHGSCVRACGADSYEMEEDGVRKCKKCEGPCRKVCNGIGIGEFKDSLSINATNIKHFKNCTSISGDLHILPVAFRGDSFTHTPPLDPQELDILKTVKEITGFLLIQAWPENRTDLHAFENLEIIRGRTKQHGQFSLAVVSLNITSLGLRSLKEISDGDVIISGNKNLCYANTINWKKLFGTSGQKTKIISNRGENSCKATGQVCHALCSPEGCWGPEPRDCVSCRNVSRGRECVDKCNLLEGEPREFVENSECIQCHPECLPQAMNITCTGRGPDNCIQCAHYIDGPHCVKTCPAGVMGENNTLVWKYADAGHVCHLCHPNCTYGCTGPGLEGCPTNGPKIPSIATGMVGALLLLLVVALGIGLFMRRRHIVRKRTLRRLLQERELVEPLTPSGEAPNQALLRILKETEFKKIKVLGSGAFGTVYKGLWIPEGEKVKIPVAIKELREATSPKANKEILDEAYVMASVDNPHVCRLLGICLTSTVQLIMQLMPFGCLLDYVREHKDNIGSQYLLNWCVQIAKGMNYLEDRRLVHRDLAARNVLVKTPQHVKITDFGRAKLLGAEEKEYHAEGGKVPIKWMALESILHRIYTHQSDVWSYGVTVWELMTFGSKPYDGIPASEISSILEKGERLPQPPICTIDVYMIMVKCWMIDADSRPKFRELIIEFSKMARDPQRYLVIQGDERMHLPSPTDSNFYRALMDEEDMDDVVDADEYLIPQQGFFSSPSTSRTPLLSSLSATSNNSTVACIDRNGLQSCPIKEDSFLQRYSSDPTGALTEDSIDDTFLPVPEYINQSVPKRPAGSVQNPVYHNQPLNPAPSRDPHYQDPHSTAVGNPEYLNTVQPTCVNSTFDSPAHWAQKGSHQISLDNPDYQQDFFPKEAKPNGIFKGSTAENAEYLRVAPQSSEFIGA
T3 sequence (P00533 25-1210 T790M/L858R): as above

Ki (EGFR del746-750 T790M) [nM] | EC50 [1] [nM] | EC50 [2] [nM] | Ki (EGFR T790M L858R) [nM] | Structure (SMILES)
4.7 | 83.2 | 483 | 1.4 | CCC(C)n1nc(N2C[C@H](O)[C@@H](F)C2)c2cnc(Nc3ccnc(N4CCC(C)(O)CC4)n3)cc21 (relative stereo) [Example 178, 1-(4-(1-sec-Butyl-3-(trans-3-fluoro-4-hydroxypyrrolidin-1-yl)-1H-pyrazolo[4,3-c]pyridin-6-ylamino)pyrimidin-2-yl)-4-methylpiperidin-4-ol]
1.2 | 34.2 | 825 | 1.4 | CC(C)NC(=O)C1CN(c2nn(C(C)C)c3cc(Nc4ccnc(-c5cnn(S(=O)(=O)C6CC6)c5)n4)ncc23)C1 [Example 169, 1-(6-(2-(1-(Cyclopropylsulfonyl)-1H-pyrazol-4-yl)pyrimidin-4-ylamino)-1-isopropyl-1H-pyrazolo[4,3-c]pyridin-3-yl)-N-isopropylazetidine-3-carboxamide]
3.8 | 141 | 801 | 1.8 | CC(C)n1nc(N2CC(F)(F)C2)c2cnc(Nc3ccnc(N4CC[C@H](O)[C@H](F)C4)n3)cc21 (racemic) [Example 174, (±)-cis-1-(4-(3-(3,3-Difluoroazetidin-1-yl)-1-isopropyl-1H-pyrazolo[4,3-c]pyridin-6-ylamino)pyrimidin-2-yl)-3-fluoropiperidin-4-ol]
10.8 | 3260 | > 10000 | 8.2 | CC(C)n1nc(NCC(F)(F)F)c2cnc(Nc3ccnc(-c4cnn(S(=O)(=O)C5CC5)c4)n3)cc21 [Example 181, N^6-(2-(1-(cyclopropylsulfonyl)-1H-pyrazol-4-yl)pyrimidin-4-yl)-1-isopropyl-N^3-(2,2,2-trifluoroethyl)-1H-pyrazolo[4,3-c]pyridine-3,6-diamine]
10.1 | 1200 | 9130 | 3.8 | CC[C@@H](C)n1nc(N2CC[C@@H](O)C2)c2cnc(Nc3ccnc(N4CCC5(CC4)CNC(=O)CO5)n3)cc21 (relative stereo) [Example 208, 9-(4-((1-((R*)-sec-Butyl)-3-((R)-3-hydroxypyrrolidin-1-yl)-1H-pyrazolo[4,3-c]pyridin-6-yl)amino)pyrimidin-2-yl)-1-oxa-4,9-diazaspiro[5.5]undecan-3-one]
2.1 | 87.2 | 489 | 1.7 | CCC(C)n1nc(N2C[C@@H](F)[C@@H](N)C2)c2cnc(Nc3ccnc(N4CCC(C)(O)CC4)n3)cc21 (relative stereo) [Example 177, 1-(4-(3-(cis-3-Amino-4-fluoropyrrolidin-1-yl)-1-sec-butyl-1H-pyrazolo[4,3-c]pyridin-6-ylamino)pyrimidin-2-yl)-4-methylpiperidin-4-ol]
2.5 | 154 | 699 | 1.8 | CC(n1nc(N2CC3(COC3)C2)c2cnc(Nc3ccnc(-c4cnn(S(=O)(=O)C5CC5)c4)n3)cc21)C(F)(F)F (centres unmarked) [Example 172, N-(2-(1-(Cyclopropylsulfonyl)-1H-pyrazol-4-yl)pyrimidin-4-yl)-3-(2-oxa-6-azaspiro[3.3]heptan-6-yl)-1-(1,1,1-trifluoropropan-2-yl)-1H-pyrazolo[4,3-c]pyridin-6-amine]

Continued, compound first:

Structure (SMILES) | Ki (EGFR del746-750 T790M) [nM] | EC50 [1] [nM] | EC50 [2] [nM] | Ki (EGFR T790M L858R) [nM]
CC(C)n1nc(N2CC[C@@H](O)C2)c2cnc(Nc3ccnc(-c4cnn(S(=O)(=O)C5CC5)c4)n3)cc21 [Example 114, (R)-1-(6-(2-(1-(Cyclopropylsulfonyl)-1H-pyrazol-4-yl)pyrimidin-4-ylamino)-1-isopropyl-1H-pyrazolo[4,3-c]pyridin-3-yl)pyrrolidin-3-ol] | 0.7 | 5.6 | 190 | 0.8
CC(C)n1nc(N2CC(O)C2)c2cnc(Nc3ccnc(-c4cnn(S(=O)(=O)C5CC5)c4)n3)cc21 [Example 37, 1-(6-(2-(1-(cyclopropylsulfonyl)-1H-pyrazol-4-yl)pyrimidin-4-ylamino)-1-isopropyl-1H-pyrazolo[4,3-c]pyridin-3-yl)azetidin-3-ol] | 0.8 | 91.7 | 1120 | 1.4
CC(C)n1nc(N2CCN(C)C2=O)c2cnc(Nc3ccnc(-c4cnn(S(=O)(=O)C5CC5)c4)n3)cc21 [Example 83, 1-(6-(2-(1-(Cyclopropylsulfonyl)-1H-pyrazol-4-yl)pyrimidin-4-ylamino)-1-isopropyl-1H-pyrazolo[4,3-c]pyridin-3-yl)-3-methylimidazolidin-2-one] | 1.2 | 21.6 | > 10000 | 1.3
CC(C)n1nc(N2CC[S+]([O-])CC2)c2cnc(Nc3ccnc(-c4cnn(S(=O)(=O)C5CC5)c4)n3)cc21 [Example 110, 4-(6-((2-(1-(Cyclopropylsulfonyl)-1H-pyrazol-4-yl)pyrimidin-4-yl)amino)-1-isopropyl-1H-pyrazolo[4,3-c]pyridin-3-yl)thiomorpholine 1-oxide] | 1.1 | 162 | 835 | 1.7
CC(C)n1nc(N2CC(C(=O)N3CC[C@@H](CO)C3)C2)c2cnc(Nc3ccnc(-c4cnn(S(=O)(=O)C5CC5)c4)n3)cc21 [Example 167, (R)-(1-(6-(2-(1-(cyclopropylsulfonyl)-1H-pyrazol-4-yl)pyrimidin-4-ylamino)-1-isopropyl-1H-pyrazolo[4,3-c]pyridin-3-yl)azetidin-3-yl)(3-(hydroxymethyl)pyrrolidin-1-yl)methanone] | 0.5 | 189 | 1830 | 0.7
CC(C)n1nc(N2CC(F)(F)C2)c2cnc(Nc3ccnc(-c4cnn(S(=O)(=O)C5CC5)c4)n3)cc21 [Example 154, N-(2-(1-(Cyclopropylsulfonyl)-1H-pyrazol-4-yl)pyrimidin-4-yl)-3-(3,3-difluoroazetidin-1-yl)-1-isopropyl-1H-pyrazolo[4,3-c]pyridin-6-amine] | 2.9 | 82 | 312 | 2.8
CC(C)n1nc(N2CC3(COC3)C2)c2cnc(Nc3ccnc(N4CCC(O)C(C)(C)C4)n3)cc21 (centres unmarked) [Example 3, 1-(4-((1-Isopropyl-3-(2-oxa-6-azaspiro[3.3]heptan-6-yl)-1H-pyrazolo[4,3-c]pyridin-6-yl)amino)pyrimidin-2-yl)-3,3-dimethylpiperidin-4-ol] | 1.6 | 38.6 | 159 | 1.4
CCC(C)n1nc(N2CC[C@@H](C(N)=O)C2)c2cnc(Nc3ccnc(N4CCC(C)(O)CC4)n3)cc21 (stereo partly drawn) [Example 145, (3R)-1-(1-sec-Butyl-6-(2-(4-hydroxy-4-methylpiperidin-1-yl)pyrimidin-4-ylamino)-1H-pyrazolo[4,3-c]pyridin-3-yl)pyrrolidine-3-carboxamide] | 1.6 | 921 | 7170 | 1.4
CCC(C)n1nc(N2CC(O)(CO)C2)c2cnc(Nc3ccnc(N4CCC(C)(O)CC4)n3)cc21 (racemic) [Example 80, (±)-1-(4-(1-sec-Butyl-3-(3-hydroxy-3-(hydroxymethyl)azetidin-1-yl)-1H-pyrazolo[4,3-c]pyridin-6-ylamino)pyrimidin-2-yl)-4-methylpiperidin-4-ol] | 9.4 | 4370 | > 10000 | 4.1
CC(C)n1nc(N2CC(O)(CO)C2)c2cnc(Nc3ccnc(-c4cnn(S(=O)(=O)C5CC5)c4)n3)cc21 [Example 124, 1-(6-(2-(1-(Cyclopropylsulfonyl)-1H-pyrazol-4-yl)pyrimidin-4-ylamino)-1-isopropyl-1H-pyrazolo[4,3-c]pyridin-3-yl)-3-(hydroxymethyl)azetidin-3-ol] | 0.7 | 248 | 660 | 0.7
CC(C)n1nc(N2CCOC(CO)C2)c2cnc(Nc3ccnc(-c4cnn(S(=O)(=O)C5CC5)c4)n3)cc21 (centres unmarked) [Example 53, (4-(6-(2-(1-(cyclopropylsulfonyl)-1H-pyrazol-4-yl)pyrimidin-4-ylamino)-1-isopropyl-1H-pyrazolo[4,3-c]pyridin-3-yl)morpholin-2-yl)methanol] | 0.9 | 53.6 | 241 | 1.2
CCC(C)n1nc(N2CCNC(=O)C2)c2cnc(Nc3ccnc(N4CCC(C)(O)CC4)n3)cc21 (centres unmarked) [Example 92, 4-(1-sec-Butyl-6-(2-(4-hydroxy-4-methylpiperidin-1-yl)pyrimidin-4-ylamino)-1H-pyrazolo[4,3-c]pyridin-3-yl)piperazin-2-one] | 9.5 | 788 | 1760 | 3.8
CC(C)n1nc(N2CC(N)CC2=O)c2cnc(Nc3ccnc(N4CCC(C)(O)CC4)n3)cc21 (centres unmarked) [Example 86, 4-Amino-1-(6-(2-(4-hydroxy-4-methylpiperidin-1-yl)pyrimidin-4-ylamino)-1-isopropyl-1H-pyrazolo[4,3-c]pyridin-3-yl)pyrrolidin-2-one] | 29.1 | 1940 | > 10000 | 13.3
